For data set [1], the system named is OVX or ORX Swiss Webster mice. Put plainly: Gonadectomized (OVX or ORX) Swiss Webster mice with 60-day slow release pellets: bone and reproductive tissues. The data set is classed as in vivo, mouse. As for the experimental part:
Osteoblastic cells (A) were isolated from calvaria of neonatal female or male mice, the sex of which was determined by Southern blot analysis of liver DNA with a Y chromosome specific cDNA probe; and cultured as previously described. The ability of the indicated steroids to protect against etoposide induced apoptosis was determined as in FIG. 1D, lower panel. (B) Osteoclasts were generated in bone marrow cultures from adult female or male mice, and then treated with vehicle or the indicated concentrations of steroids for 24 hours at which point the number of cells undergoing apoptosis was determined. Representative results from 1 of 4 females and 1 of 4 males examined are shown. Each point represents the mean of triplicate determinations±SD. *p<0.05 vs. vehicle, by ANOVA. (C & D) Eight-month old Swiss Webster mice (n=8-10 per group) were sham-operated, ovariectomized (OVX) or orchidectomized (ORX). […] BMD and wet uterine or seminal vesicle weight was determined six weeks later. Bars indicate means±SD. *p<0.05 vs OVX or ORX.
FIG. 9 illustrates the equivalence of the skeletal actions of estrogens and androgens in female and male mice. […] Six weeks later, osteoblast apoptosis in histologic sections of the vertebrae (A), osteoblastogenesis and osteoclastogenesis in ex vivo bone marrow cultures (B and C), and serum osteocalcin concentration (D) were determined. Bars indicate means±SD, *p<0.05 vs OVX or ORX.
Global, spine and hindlimb BMD was determined at both 4 and 6 weeks later in the experiment with the 8 month old females, and at 6 weeks only in the experiments with the 6 month old females and males (A, B and C). The 6 week BMD data in females (B) represent pooled values from the two experiments with the 6- and the 8-month old mice.
Longitudinal undecalcified sections of the distal femur are shown in (B). […] Osteoblast apoptosis in sections of L1-L4 vertebrae from females (8 month old) and males (C).
Histomorphometric analysis of L1-L4 vertebrae from 6 month old females (A-F) and pooled serum osteocalcin levels from the 6 and 8 month old females (G). […] The ANGELS compounds described herein are useful for maintaining and/or increasing bone mass and/or strength and/or density in mammals. Mammals, preferably humans, in need of such compounds can include those suffering from such conditions as female osteoporosis (post menopausal), male osteoporosis, glucocorticoid-induced osteoporosis, immobilization and aging-related osteoporosis, idiopathic or juvenile osteoporosis, transplantation-related osteoporosis, and alveolar ridge bone loss. In addition, the compounds described herein are particularly useful for administration to subjects that are unable or unwilling to tolerate therapies that have a masculinizing or feminizing effect. For example, subjects such as breast cancer patients (especially those with bone metastasis on gonadotropin […] hormone (GnRH) or ovariectomized), prostrate cancer patients (especially those on GnRH/castration therapy), and myeloma/lymphoma patients are frequently poor candidates for treatment with estrogen or androgens because of the risk of a recurrence of the underlying condition, e.g., cancer.
(§1) Wet uterine (A) or seminal vesicle weight (B) of female and male mice described in FIG. 11. […] Note the following morphologic differences in the uteri of OVX- and OVX+4-estren-3α,17β-diol-treated mice as compared to uteri from sham-operated and OVX+E2-treated mice: thin and atrophic columnar epithelium; compact stroma; decreased number of glands; decreased nucleus to cytoplasmic ratio in the columnar epithelial, endometrial stroma, and myometrial cells; and absence of mitotic activity. (D) Proliferation of MCF-7 cells was determined by ^3H-thymidine uptake.
For these studies, mature Swiss Webster mice (8 month old), n=8-10 per group, were sham-operated or gonadectomized (GNDX). […]

A further data set deals with MCF-7 cells. Put plainly: MCF-7 cell proliferation assay (3H-thymidine uptake). Particulars: 10^−12-10^−7 M for 48 h. The data set is classed as cell-based.
Excerpt: as §1
MCF-7 cell proliferation assay: MCF-7 cells were serum-starved in the presence of 10^−8 M ICI 182,780 for 96 h, after which the ICI-containing medium was replaced with medium-containing vehicle or 10^−12-10^−7 M of the indicated steroids for an additional 48 h. At that time, proliferation was assayed by measuring ^3H-Thymidine uptake as previously described (Bellido et al, 1997).

[2] abbreviates: histomorphometry of lumbar vertebrae L1-L4, OVX females.

As for `C[C@]12CC[C@H]3[C@@H](CCC4=C[C@H](O)CC[C@@H]43)[C@@H]1CC[C@@H]2O` [4-estren-3α,17β-diol], the body weight entry in data set [1] (7.6 mg per 60 day slow release pellet) is recorded as “no effect”. In data set [1] (4-estren-3α,17β-diol 7.6 mg pellet, E2 pharmacologic dose 100× the replacement dose), the “effect on the bone marrow cavity” value is on record as “no adverse effects”. In addition, the “longitudinal undecalcified sections of the distal femur” value in data set [1] (4-estren-3α,17β-diol at 300× ERT versus vehicle or E2 1× ERT, E2 at 100× ERT) is “increased cortical and trabecular width”. Further, the “bone compression strength in the vertebrae, male mice” value in data set [1] (L5, ORX) is “equally effective”. Besides, the “bone compression strength in the vertebrae, female mice” value in data set [1] (L5, compared to mice receiving E2) is “greater than in mice receiving E2”. Also, the “BMD in ORX mice compared to DHT replacement” value in data set [1] (ORX males, 7.6 mg pellet) is “at least as effective if not superior”. Further, the “BMD values in the spine versus the untreated ORX group” value in data set [1] (ORX males, 6 weeks) is recorded as “significantly higher”. In data set [1] (ORX males, pellets E2 0.025 mg or 4-estren-3α,17β-diol 7.6 mg), the seminal vesicle weight result is listed as “no effect”. In addition, the “histologic analysis of the uterus” value in data set [1] (OVX females) is recorded as “lack of an effect”. The wet uterine weight result in data set [1] (OVX females, pellets DHT 10 mg or 4-estren-3α,17β-diol 7.6 mg) was “no effect”. The “BMD change in the hindlimb” value in data set [1] (OVX mice, compared to OVX+E2 replacement and to estrogen replete sham controls) is reported as “greater BMD change”. Besides, the “global and spinal BMD in females” value in data set [1] (OVX, 7.6 mg pellet versus E2 replacement) was “as effective, if not superior to estradiol”. Besides, in data set [1] (as compared to the OVX group), the osteoclast number result is reported as “suppressed” and the “rate of bone formation” value is recorded as “suppressed”. Also, the “prevalence of osteoblast and osteocyte apoptosis in the lumbar vertebrae” value in data set [1] (gonadectomized females or males) is recorded as “prevented the increased prevalence”. For the same compound, in data set [1] (setting [2]), the “cortical width, greater compared to OVX mice treated with E2” value is on record as 27.8%; the “number of osteoblasts on the trabeculae, greater than in the E2-treated group” value stood at 319%; the “osteoid perimeter, increase versus E2-treated group” value was 270%; the “trabecular width, greater compared to OVX mice treated with E2” value came to 33.9%. In data set [1] (two separate experiments, compared to OVX+E2 and to estrogen replete sham controls), the serum osteocalcin result was “significantly higher”. Moreover, the MCF-7 cell proliferation result in the data set with MCF-7 cells is “did not stimulate”.

The record behind these values is patent publication US20030119800A1, “Bone anabolic compounds and methods of use” (priority 2001, published 2003).
